Test results: US9793566B2, “Aqueous electrolytes for redox flow battery systems” (Battelle Memorial Institute, priority 2015, dated 2017)
≈ marks a conversion by molar mass, not a printed value.

How the values were obtained:
[1] = Cyclic voltammetry, redox couple potential; type: physicochemical; details: neutral aqueous solution
Experimental: Cyclic voltammetry was performed at 0.05 V/s with a glassy carbon working electrode.

[2] = Electrolyte stability: repeated cycling overnight, cyclic voltammograms before and after; type: physicochemical; details: 300 mM DMTU, 0.45 M HCl, no significant peak changes in the cyclic voltammograms
Excerpt: Cyclic voltammograms were obtained before and after the overnight test—initial E (V)=0, high E (V)=1, low E (V)=−0.8, initial P/N=P, scan rate (V/s)=0.05, segment=3, sample interval (V)=0.001, quiet time (s)=2, […].

[3] = Cyclic voltammetry comparison of N-methyl thiourea and N,N′-dimethyl thiourea catholytes; type: physicochemical; details: 200 mM in 1 M NaCl, scan rate 0.05 V/s
Experimental: Aqueous catholytes comprising 200 mM MTU and 200 mM DMTU were compared. Each catholyte also included 1 M NaCl. Cyclic voltammetry was performed under the following conditions: initial E (V)=0, high E (V)=1, low E (V)=−0.75, initial P/N=P, scan rate (V/s)=0.05, segment=7, sample interval (V)=0.001, quiet time (s)=2, sensitivity (A/V)=0.001.

physchem = details: aqueous buffer

| stability in acid solutions [2] | solubility (physchem) | SMILES | one electron redox couple [1] | kinetics, reversibility and overpotential compared with MTU [3] |
| --- | --- | --- | --- | --- |
| – | – | CC1(C)CC(O)CC(C)(C)N1[O] [HTMPO, 4-hydroxy-2,2,6,6-tetramethylpiperidine 1-oxyl] | 0.75 V vs. SHE | – |
| good stability | ~4000 mM (≈ 417 mg/mL) | CNC(=S)NC [DMTU, N,N′-dimethyl thiourea] | – | better kinetics, with better reversibility and a lower overpotential |
